The supplement of paper PMC10307832

Tests used:
Experiment in all cases: relative viability (nuclei count vs DMSO), 5 days (fraction); higher = more cells survive
Crenolanib + Bortezomib = compound: CC1(COc2ccc3c(c2)ncn3-c2ccc3cccc(N4CCC(N)CC4)c3n2)COC1 [Crenolanib] + CC(C)C[C@H](NC(=O)[C@H](Cc1ccccc1)NC(=O)c1cnccn1)B(O)O [Bortezomib] (partner 0.002 µM)
How it was run: (§1)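 Relative viability is defined as nuclei in treated wells over nuclei in vehicle wells. Duplicate plates were run and medians reported. Lung cancer cell lines in 1536-well plates were dosed by pin tool one day after seeding, with one drug or with a fixed anchor-drug dose plus five library-drug doses (not always all listed) in √10 steps, and nuclei were counted after 5 days.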

Tivantinib + Lapatinib = compound: O=C1NC(=O)[C@@H](c2cn3c4c(cccc24)CCC3)[C@@H]1c1c[nH]c2ccccc12 [Tivantinib] + CS(=O)(=O)CCNCc1ccc(-c2ccc3ncnc(Nc4ccc(OCc5cccc(F)c5)c(Cl)c4)c3c2)o1 [Lapatinib] (partner 2 µM)
How it was run: as §1

Crenolanib + Luminespib = compound: CC1(COc2ccc3c(c2)ncn3-c2ccc3cccc(N4CCC(N)CC4)c3n2)COC1 [Crenolanib] + CCNC(=O)c1noc(-c2cc(C(C)C)c(O)cc2O)c1-c1ccc(CN2CCOCC2)cc1 [Luminespib] (partner 0.01 µM)
How it was run: as §1

Crenolanib + Dasatinib = compound: CC1(COc2ccc3c(c2)ncn3-c2ccc3cccc(N4CCC(N)CC4)c3n2)COC1 [Crenolanib] + Cc1nc(Nc2ncc(C(=O)Nc3c(C)cccc3Cl)s2)cc(N2CCN(CCO)CC2)n1 [Dasatinib] (partner 0.075 µM)
How it was run: as §1

UMC-11
relative viability (Crenolanib + Bortezomib; first compound 0.01 µM): 0.811 | relative viability (Crenolanib + Bortezomib; first compound 0.03162 µM): 0.753 | relative viability (Crenolanib + Bortezomib; first compound 0.1 µM): 0.703 | relative viability (Crenolanib + Bortezomib; first compound 0.3162 µM): 0.752 | relative viability (Crenolanib + Bortezomib; first compound 1 µM): 0.757 | relative viability (Tivantinib + Lapatinib; first compound 0.01 µM): 1.03 | relative viability (Tivantinib + Lapatinib; first compound 0.03162 µM): 0.673 | relative viability (Tivantinib + Lapatinib; first compound 0.1 µM): 1.03 | relative viability (Tivantinib + Lapatinib; first compound 0.3162 µM): 1.08 | relative viability (Crenolanib + Luminespib; first compound 0.01 µM): 1.06 | relative viability (Crenolanib + Luminespib; first compound 0.03162 µM): 1.02 | relative viability (Crenolanib + Luminespib; first compound 0.1 µM): 1.02 | relative viability (Crenolanib + Luminespib; first compound 0.3162 µM): 1.11 | relative viability (Crenolanib + Luminespib; first compound 1 µM): 1.07 | relative viability (Crenolanib + Dasatinib; first compound 0.01 µM): 0.45 | relative viability (Crenolanib + Dasatinib; first compound 0.03162 µM): 0.52 | relative viability (Crenolanib + Dasatinib; first compound 0.1 µM): 0.427 | relative viability (Crenolanib + Dasatinib; first compound 0.3162 µM): 0.506 | relative viability (Crenolanib + Dasatinib; first compound 1 µM): 0.481
